Assay results published in patent US7253139B2, “Surfactant preparations comprising α-hydroxy acids” (Cognis Deutschland GmbH & Co. KG, priority 2001, dated 2007).

How the values were obtained:
[1] = Determination of surface tension, Wilhelmy plate method (DIN 53914); type: physicochemical; settings: added to anionic surfactant (Texapon NSO)
Experimental: Determination of Surface Activity
Surface activity was determined to DIN 53914. To this end, the solution to be tested was tested by the Wilhelmy plate method (plate PT 11) at 21±1° C. The preparations according to the invention are intended to have a surface activity of at least 20 mN/m, preferably at least 25 mN/m and more particularly at least 30 mN/m, based on the active substance content of 5% by weight.
The surface tension of the surfactant solution containing tartaric acid was compared with that of the pure surfactant solution (Texapon® NSO, sodium lauryl ether sulfate; Cognis, Dusseldorf) by conducting measurements at 21±1° C. using the Wilhelmy plate method (plate PT 11) to DIN 53914.

[2] = Determination of foaming behavior, rotor foam method; type: physicochemical; settings: added to anionic surfactant (Texapon NSO)
Experimental: To determine foaming behavior, the foaming kinetics after 30 seconds and the foam potential after 60 s and 180 s were measured by the rotor foam method (DIN 13996 in preparation). The rotor foam tester consists of a heatable, double-walled cylindrical glass vessel with an internal diameter of 17.5 cm. A scale in mm is provided on the cylindrical glass vessel for reading off the foam height and the liquid level. In addition, the glass vessel is provided with a Styropor lid which is used both to cover and to insulate the vessel. The stirrer consists of a special stirring head with a stirrer shaft 28 cm in length and 1 cm in diameter and a JK stirrer with a digital revolution counter. A thermostat, a stopwatch and a thermometer (digital) are also required.
The test solution was prepared with water of a certain hardness (15° dH). 200 ml of the sample preheated to 30±1° C. were slowly poured in at the rim of the glass vessel which was covered with the Styropor lid when the required temperature of 30±1° C. had been reached. The rotor speed was 1300 r.p.m.
The first foam height value was determined after 30 seconds. To this end, the stirrer was switched off for at most 10 seconds. The foam volume was then determined after 60 and 180 seconds.

Row | Effect of the addition on the surface activity of the anionic surfactant [1] | Effect of the addition on the foam behavior of the anionic surfactant [2] | Molecule
1 | does not significantly affect | does not significantly affect | O=C(O)C(O)C(O)C(=O)O (stereo not shown) [tartaric acid]
2 | does not significantly affect | does not significantly affect | laureth-4-citrate
